The text below walks through data of PubChem BioAssay (NCI).

Test systems include SW-620 colon; SK-MEL-5 melanoma; HT29 colon; NCI-H522 lung; COLO 205 colon; 786-0 renal; NCI/ADR-RES ovarian; EKVX NSCLC; HCT-116 colon; HCT-15 colon; SF-268 CNS.
Test in all cases: growth of human tumour cells (NCI), 48 h

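Five concentrations, 48 hours, 96-well plates. TGI: concentration producing complete growth inhibition.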

With `Cc1ccc(N=NN(C)C(=O)C(C)N)cc1` (stereo not drawn), the TGI in the assay with SW-620 colon, in the assay on SK-MEL-5 melanoma, in the assay on HT29 colon, with NCI-H522 lung, with COLO 205 colon and in the assay on 786-0 renal was more than 100 µM in each case. The TGI with NCI/ADR-RES ovarian, with EKVX NSCLC, in the assay on HCT-116 colon, with HCT-15 colon and in the assay on SF-268 CNS was more than 100 µM each time.
Regarding `COc1ccc2c(c1)CCCN2S(=O)(=O)c1ccccc1[N+](=O)[O-]`, the TGI in the assay on SW-620 colon was more than 100 µM; with SK-MEL-5 melanoma, 62.2 µM; in the assay on HT29 colon it was 77.2 µM; with NCI-H522 lung, 66.5 µM; in the assay with COLO 205 colon, more than 79.8 µM; in the assay with 786-0 renal, more than 100 µM. Besides, the TGI in the assay on NCI/ADR-RES ovarian is more than 85.6 µM; with EKVX NSCLC it was more than 91.9 µM; in the assay on HCT-116 colon, 88.9 µM; in the assay with HCT-15 colon, more than 97.4 µM; in the assay on SF-268 CNS it was more than 96.8 µM.
For the compound `O=C(NC(Nc1ccc(F)cc1)(C(F)(F)F)C(F)(F)F)C(C(F)(F)F)C(F)(F)F`, the TGI in the assay on SW-620 colon is more than 100 µM; in the assay with SK-MEL-5 melanoma, more than 100 µM; in the assay on HT29 colon, more than 100 µM; in the assay with NCI-H522 lung, more than 89.6 µM; in the assay on COLO 205 colon, more than 100 µM; in the assay on 786-0 renal, more than 100 µM. For the same compound, the TGI in the assay with NCI/ADR-RES ovarian, in the assay on EKVX NSCLC, in the assay with HCT-116 colon, in the assay on HCT-15 colon and with SF-268 CNS was more than 100 µM each time.
`NC(Cc1ccc(S(=O)(=O)O)cc1)C(=O)NC(Cc1ccc(S(=O)(=O)O)cc1)C(=O)NC(Cc1ccc(S(=O)(=O)O)cc1)C(=O)O` (stereo not drawn): the TGI in the assay on SW-620 colon, in the assay with SK-MEL-5 melanoma, in the assay with HT29 colon, with NCI-H522 lung, in the assay on COLO 205 colon and with 786-0 renal was more than 100 µM throughout. In addition, the TGI with NCI/ADR-RES ovarian, with EKVX NSCLC, in the assay with HCT-116 colon, in the assay with HCT-15 colon and with SF-268 CNS was more than 100 µM each time.
Consider `O=C(NCCN1CCCCC1)c1ccc(I)cc1`, for which the TGI in the assay on SW-620 colon, in the assay on SK-MEL-5 melanoma, with HT29 colon, in the assay on NCI-H522 lung, in the assay with COLO 205 colon and in the assay on 786-0 renal was more than 100 µM throughout. The TGI in the assay with NCI/ADR-RES ovarian, in the assay with EKVX NSCLC, with HCT-116 colon, in the assay on HCT-15 colon and with SF-268 CNS was more than 100 µM throughout.
As for `CC(C)C(C/C=C1/CC(CO)(COC(=O)c2ccccc2)OC1=O)C(C)C` (stereo not drawn), the TGI in the assay with SW-620 colon is 31.9 µM; with SK-MEL-5 melanoma, 21.3 µM; in the assay on HT29 colon, 36.4 µM; in the assay on NCI-H522 lung, 35 µM; with COLO 205 colon it was 17.4 µM; in the assay with 786-0 renal, 23.2 µM. The TGI with NCI/ADR-RES ovarian worked out at 38.8 µM; in the assay on EKVX NSCLC, 35.9 µM; with HCT-116 colon it was 29.7 µM; with HCT-15 colon, 36.9 µM; with SF-268 CNS it was 31.8 µM.
Take `COc1ccc(/C=C2/NC(=S)N=C2Cl)cc1`: the TGI in the assay on SW-620 colon, with SK-MEL-5 melanoma, with HT29 colon, in the assay on NCI-H522 lung, in the assay on COLO 205 colon and in the assay on 786-0 renal was more than 100 µM in each case. Further, the TGI in the assay with NCI/ADR-RES ovarian, with EKVX NSCLC, with HCT-116 colon, with HCT-15 colon and in the assay on SF-268 CNS was more than 100 µM throughout.
For `CN1C=Cc2nccc3cc4c(c1c23)OCO4`, the TGI in the assay with SW-620 colon was more than 100 µM; in the assay with SK-MEL-5 melanoma, 4.84 µM; in the assay on HT29 colon, 27.5 µM; in the assay with NCI-H522 lung, 8.2 µM; in the assay with COLO 205 colon it was more than 42.8 µM; in the assay on 786-0 renal, 24.8 µM. Also, the TGI in the assay with NCI/ADR-RES ovarian is 52.6 µM; in the assay on EKVX NSCLC, 13.8 µM; with HCT-116 colon, 35.2 µM; with HCT-15 colon, more than 66.3 µM; in the assay with SF-268 CNS, 11.3 µM.
With `CC1(C)C2CC3C4CC5(Nc6ccccc6C5N41)[C@]3(C)CC2=O` (stereo partly drawn), the TGI in the assay with SW-620 colon, with SK-MEL-5 melanoma, in the assay with HT29 colon, in the assay with NCI-H522 lung, with COLO 205 colon and in the assay with 786-0 renal was more than 50 µM throughout. The TGI with NCI/ADR-RES ovarian, in the assay with EKVX NSCLC, in the assay with HCT-116 colon, in the assay on HCT-15 colon and in the assay on SF-268 CNS was more than 50 µM each time.
Consider `O=c1oc2ccc(Cl)cc2cc1-c1cn2ccccc2n1`, for which the TGI is more than 100 µM with SW-620 colon; more than 100 µM with SK-MEL-5 melanoma; more than 50.6 µM with HT29 colon; more than 100 µM in the assay on NCI-H522 lung; more than 100 µM with COLO 205 colon; 18 µM in the assay on 786-0 renal. Also, the TGI in the assay with NCI/ADR-RES ovarian is more than 77.4 µM; with EKVX NSCLC it was more than 100 µM; in the assay on HCT-116 colon it was 45.2 µM; in the assay on HCT-15 colon, more than 100 µM; in the assay on SF-268 CNS it was 99.3 µM.
Regarding `O=C1NC(N2CCCCC2)=N/C1=C\c1ccccc1O`, the TGI with SW-620 colon, with SK-MEL-5 melanoma, in the assay with HT29 colon, with NCI-H522 lung, in the assay on COLO 205 colon and in the assay with 786-0 renal was more than 100 µM in each case. In addition, the TGI in the assay with NCI/ADR-RES ovarian, with EKVX NSCLC, in the assay on HCT-116 colon, with HCT-15 colon and in the assay on SF-268 CNS was more than 100 µM throughout.
Take `SCc1ccc(CS)s1`: the TGI in the assay on SW-620 colon, with SK-MEL-5 melanoma, in the assay with HT29 colon, in the assay on NCI-H522 lung, in the assay on COLO 205 colon and with 786-0 renal was more than 100 µM in each case. The TGI in the assay with NCI/ADR-RES ovarian, with EKVX NSCLC, in the assay on HCT-116 colon, with HCT-15 colon and with SF-268 CNS was more than 100 µM throughout.
For `O=C(O)C1(Cc2ccc3c(c2)CCC3)Cc2ccccc2C1`, the TGI in the assay with SW-620 colon, with SK-MEL-5 melanoma, in the assay on HT29 colon, in the assay with NCI-H522 lung, in the assay on COLO 205 colon and in the assay on 786-0 renal was more than 100 µM each time. Moreover, the TGI in the assay with NCI/ADR-RES ovarian, with EKVX NSCLC, with HCT-116 colon, with HCT-15 colon and in the assay on SF-268 CNS was more than 100 µM throughout.
